Test results as given in patent US8759339B2, “Pyrrolo[2,1-c][1,4]naphthodiazepine linked piperazine compounds and a process for the preparation thereof” (Council of Scientific & Industrial Research, priority 2011, dated 2014).
pIC50: −log10 of the molar value. Like-named read-outs stand apart in the source and are kept apart here.

Tests used:
[1] = test system: PC-3 prostrate cancer cell line; assay: In vitro anticancer activity, MTT assay; format: cell-based, human; conditions: for pIC50: prostrate cancer cell line, MTT, 48 h continuous drug exposure; for in-vitro cytotoxicity in prostrate cancer cell line (PC-3): result in words
Experimental: (§1) In vitro biological activity studies were carried out at the pharmacology division, IICT, Hyderabad. The compounds were evaluated for in vitro anticancer activity against eight tumour cell lines derived from […] cancer types (breast, lung, liver, skeletal, kidney, prostrate, small intestine) as shown in Table 2. For each compound, dose response curves for each cell line were measured at a minimum of five concentrations at 10 fold dilutions. A protocol of 48 h continuous drug exposure was used and a MTT assay was used to estimate cell viability or growth. The concentration causing 50% inhibition (IC50) compared with the control was calculated. Some of the compounds have been evaluated for their in vitro cytotoxicity in eight cell lines from seven human cancer types. The results are expressed as IC50 determined relative to that of untreated control cells (Table-2).

[2] = test system: HEPG2 liver cancer cell line; assay: In vitro anticancer activity, MTT assay; format: cell-based, human; conditions: for in-vitro cytotoxicity in liver cancer cell line (HEPG2): result in words
Experimental: as §1

[3] = test system: A549 lung cancer cell line; assay: In vitro anticancer activity, MTT assay; format: cell-based, human; conditions: for in-vitro cytotoxicity in lung cancer cell line (A549): result in words
Experimental: as §1

[4] = test system: MCF7 breast cancer cell line; assay: In vitro anticancer activity, MTT assay; format: cell-based, human; conditions: for pIC50: breast cancer cell line, MTT, 48 h continuous drug exposure; for in-vitro cytotoxicity in breast cancer cell line (MCF-7): result in words
Experimental: as §1

[5] = test system: NCIH460 large cell lung cancer cell line; assay: In vitro anticancer activity, MTT assay; format: cell-based, human; conditions: for pIC50: large cell lung cancer cell line, MTT, 48 h continuous drug exposure; for in-vitro cytotoxicity in large cell lung cancer cell line (NCIH460): result in words
Experimental: as §1

[6] = test system: L-6; assay: In vitro anticancer activity, MTT assay; format: cell-based; conditions: skeletal cancer cell line; MTT, 48 h continuous drug exposure
Experimental: as §1

[7] = test system: L-6 skeletal cancer cell line; assay: In vitro anticancer activity, MTT assay; format: cell-based; conditions: result in words
Experimental: as §1

[8] = test system: COS-1 kidney cancer cell line; assay: In vitro anticancer activity, MTT assay; format: cell-based; conditions: for in-vitro cytotoxicity in kidney cancer cell line (COS-1): result in words; for pIC50: COS-1, range over the listed compounds, exposure period of at least 48 hrs, read-out: IC50 against kidney cancer cell lines
Experimental: as §1

[9] = In vitro anticancer activity, MTT assay; format: cell-based; conditions: kidney cancer cell line; MTT, 48 h continuous drug exposure; read-out: IC50 COS-1
Experimental: as §1

[10] = test system: IEC-6 small intestine cell line; assay: In vitro anticancer activity, MTT assay; format: cell-based; conditions: for in-vitro cytotoxicity in small intestine cancer cell line (IEC-6): result in words
Experimental: as §1

[11] = test system: calf thymus DNA (CT-DNA); assay: Thermal denaturation studies with duplex-form calf thymus DNA; format: binding; conditions: [PND]/[DNA] molar ratio 1:5, CT-DNA 100 μM, ligand 20 μM, aqueous sodium phosphate buffer pH 7; for ΔTm after incubation at 37° C. for 0 hr: 0 hr at 37° C.; for ΔTm after incubation at 37° C. for 18 hrs: 18 hrs at 37° C.
Experimental: Compounds have been subjected to thermal denaturation studies with duplex-form calf thymus DNA (CT-DNA) using an modification of a reported procedure (Newman, M. S. Carcinog-compr. Surv. 1976, 1, 203; (b) Hecht, S. S.; Loy, M.; Hoffman, Carcinog-compr. Surv. 1976, 1, 325). Working solutions in aqueous buffer (10 mM NaH2PO4/Na2HPO4, 1 mM Na2EDTA, pH 7.00+0.01) containing CT-DNA (100 μm in phosphate) and the PND (pyrrolo naphtha diazepine) (20 μm) have been prepared by addition of concentrated PND (pyrrolo naphtha diazepine) solutions in DMSO to obtain a fixed [PND]/[DNA] molar ratio of 1:5. The DNA-PND (pyrrolo naphtha diazepine) solutions have been incubated at 37° C. for 0 and 18 h prior to analysis. Samples have been monitored at 260 nm using a Beckman DU-800 spectrophotometer fitted with high performance temperature controller, and heated at 1° C. min in the 40-110° C. range. DNA helix→coil transition temperatures (Tm) have been obtained from the maxima in the d(A260)/dT derivative plots. Drug-induced alterations in DNA melting behavior are given by: ΔTm=Tm(DNA+PND)−Tm(DNA alone), where the Tm value for the PND-free CT-DNA is 69.1±0.01.
The DNA binding activity for these novel substituted piperazine linked pyrrolo naphtho diazepine hybrids has been examined by thermal denaturation studies using calf thymus (CT) DNA. […] The data for some of the compounds are included in Table 1 for comparison.

[12] = liver cancer cell line, MTT, 48 h continuous drug exposure, read-out: IC50 HEPG2
[13] = lung cancer cell line, MTT, 48 h continuous drug exposure, read-out: IC50 A549
[14] = small intestine cell line, MTT, 48 h continuous drug exposure, read-out: IC50 IEC-6
[15] = Homo sapiens, HepG2, liver cancer cell line, MTT, 48 h continuous drug exposure, read-out: IC50 HEPG2
[16] = Homo sapiens, HepG2, range over the listed compounds, exposure period of at least 48 hrs, read-out: IC50 against liver cancer cell lines
[17] = Homo sapiens, A549, lung cancer cell line, MTT, 48 h continuous drug exposure, read-out: IC50 A549
[18] = Homo sapiens, A549, range over the listed compounds, exposure period of at least 48 hrs, read-out: IC50 against lung cancer cell lines
[19] = IEC-6, range over the listed compounds, exposure period of at least 48 hrs, read-out: IC50 against small intestine cancer cell lines
[20] = IEC-6, small intestine cell line, MTT, 48 h continuous drug exposure, read-out: IC50 IEC-6

Compound | pIC50 [1] | pIC50 [2, 12] | pIC50 [3, 13] | pIC50 [4] | pIC50 [5] | pIC50 [9] | pIC50 [10, 14] | in-vitro cytotoxicity in prostrate cancer cell line (PC-3) [1] | in-vitro cytotoxicity in liver cancer cell line (HEPG2) [2] | in-vitro cytotoxicity in lung cancer cell line (A549) [3] | in-vitro cytotoxicity in breast cancer cell line (MCF-7) [4] | in-vitro cytotoxicity in large cell lung cancer cell line (NCIH460) [5] | pIC50 [6] | in-vitro cytotoxicity in skeletal cancer cell line (L-6) [7] | in-vitro cytotoxicity in kidney cancer cell line (COS-1) [8] | in-vitro cytotoxicity in small intestine cancer cell line (IEC-6) [10] | ΔTm after incubation at 37° C. for 0 hr [11] [°C] | ΔTm after incubation at 37° C. for 18 hrs [11] [°C] | pIC50 ([1]; Homo sapiens) | pIC50 [2, 15] | further results
8-Methoxy-9-(2-chloroethoxy)-(13aS)-1,2,3,13a-tetrahydro-5H-pyrrolo[2,1-c][1,4]naphthodiazepine-5-one [1a] | 6.41 | 6.28 | 7.70 | 7.30 | 6.52 | 5.51 | 7.70 | exhibiting in-vitro cytotoxicity | exhibiting in-vitro cytotoxicity | exhibiting in-vitro cytotoxicity | exhibiting in-vitro cytotoxicity | exhibiting in-vitro cytotoxicity | 5.97 | exhibiting in-vitro cytotoxicity | exhibiting in-vitro cytotoxicity | exhibiting in-vitro cytotoxicity | 6.2 | 7.6 | – | – | –
COc1cc2cc3c(cc2cc1OCCN1CCN(c2ccc(F)cc2)CC1)C(=O)N1CCC[C@H]1C=N3 [20a, 9-Methoxy-8-(2-[4-(4-fluorophenyl)piperazino]ethoxy)-(13aS)-1,2,3,13a-tetrahydro-5H-pyrrolo[2,1-c][1,4]naphthodiazepin-5-one] | – | – | – | – | – | – | – | exhibiting in-vitro cytotoxicity | exhibiting in-vitro cytotoxicity | exhibiting in-vitro cytotoxicity | exhibiting in-vitro cytotoxicity | exhibiting in-vitro cytotoxicity | 5.20 | exhibiting in-vitro cytotoxicity | – | exhibiting in-vitro cytotoxicity | 5.9 | 7.0 | 5.36 | 5.39 | pIC50 [2, 16]: 5.14 to 7.70; pIC50 [3, 17]: 4.98; pIC50 [3, 18]: 4.92 to 7.70; pIC50 ([4]; Homo sapiens, MCF7): 5.40; pIC50 ([5]; Homo sapiens, NCI-H460): 6.00; pIC50 [8]: 5.36 to 6.10; pIC50 [10, 19]: 5.23 to 8.00; pIC50 [10, 20]: 5.23
COc1cc2cc3c(cc2cc1OCCN1CCN(c2ncccn2)CC1)C(=O)N1CCC[C@H]1C=N3 [24a, 9-Methoxy-8-(2-[4-(2-pyrimidinyl)piperazino]ethoxy)-(13aS)-1,2,3,13a-tetrahydro-5H-pyrrolo[2,1-c][1,4]naphthodiazepin-5-one] | – | – | – | – | – | – | – | exhibiting in-vitro cytotoxicity | exhibiting in-vitro cytotoxicity | exhibiting in-vitro cytotoxicity | exhibiting in-vitro cytotoxicity | exhibiting in-vitro cytotoxicity | 5.66 | exhibiting in-vitro cytotoxicity | – | exhibiting in-vitro cytotoxicity | 4.9 | 6.5 | 8.00 | 5.98 | pIC50 [2, 16]: 5.14 to 7.70; pIC50 [3, 17]: 4.92; pIC50 [3, 18]: 4.92 to 7.70; pIC50 ([4]; Homo sapiens, MCF7): 5.71; pIC50 ([5]; Homo sapiens, NCI-H460): 8.70; pIC50 [8]: 5.36 to 6.10; pIC50 [10, 19]: 5.23 to 8.00; pIC50 [10, 20]: 6.70
COc1cc2c(cc1O)N=CC1CCCN1C2=O (stereo not shown) [DC-81, reference compound] | 4.85 | 5.28 | 4.76 | 4.90 | 5.05 | 4.48 | 4.81 | – | – | – | – | – | 4.56 | – | – | – | 0.3 | 0.7 | – | – | –

Second part, led by results:

pIC50 [1] | pIC50 [2, 12] | pIC50 [3, 13] | pIC50 [4] | pIC50 [5] | pIC50 [9] | pIC50 [10, 14] | Compound | in-vitro cytotoxicity in prostrate cancer cell line (PC-3) [1] | in-vitro cytotoxicity in liver cancer cell line (HEPG2) [2] | in-vitro cytotoxicity in lung cancer cell line (A549) [3] | in-vitro cytotoxicity in breast cancer cell line (MCF-7) [4] | in-vitro cytotoxicity in large cell lung cancer cell line (NCIH460) [5] | pIC50 [6] | in-vitro cytotoxicity in skeletal cancer cell line (L-6) [7] | in-vitro cytotoxicity in kidney cancer cell line (COS-1) [8] | in-vitro cytotoxicity in small intestine cancer cell line (IEC-6) [10] | ΔTm after incubation at 37° C. for 0 hr [11] [°C] | ΔTm after incubation at 37° C. for 18 hrs [11] [°C] | pIC50 ([1]; Homo sapiens) | pIC50 [2, 15] | further results
7.70 | 7.70 | 6.96 | 8.70 | 7.70 | 6.04 | 8.00 | 9-Methoxy-8-(2-chloroethoxy)-(13aS)-1,2,3,13a-tetrahydro-5H-pyrrolo[2,1-c][1,4]naphthodiazepine-5-one [2a] | exhibiting in-vitro cytotoxicity | exhibiting in-vitro cytotoxicity | exhibiting in-vitro cytotoxicity | exhibiting in-vitro cytotoxicity | exhibiting in-vitro cytotoxicity | 8.70 | exhibiting in-vitro cytotoxicity | exhibiting in-vitro cytotoxicity | exhibiting in-vitro cytotoxicity | 7.1 | 9.5 | – | – | –
4.87 | 5.14 | 6.18 | 5.54 | 5.77 | – | – | COc1cc2cc3c(cc2cc1OCCN1CCN(C(C)=O)CC1)N=C[C@@H]1CCCN1C3=O [5a, 8-Methoxy-9-[2-(4-acetylpiperazino)ethoxy]-(13aS)-1,2,3,13a-tetrahydro-5H-pyrrolo[2,1-c][1,4]naphthodiazepin-5-one] | exhibiting in-vitro cytotoxicity | exhibiting in-vitro cytotoxicity | exhibiting in-vitro cytotoxicity | exhibiting in-vitro cytotoxicity | exhibiting in-vitro cytotoxicity | 5.58 | exhibiting in-vitro cytotoxicity | – | – | 5.5 | 7.1 | – | – | –
